Numbers after ± are expanded uncertainties.
Key:
[1] = refractive index (Na D-line) (dimensionless); xn = mol fraction of the nth substance listed; conditions: 101 kPa, Liquid, Standard Abbe refractometry
[2] = xn = mol fraction of the nth substance listed; conditions: 293.15 K, 101 kPa, Liquid; for viscosity: Capillary tube (Ostwald / Ubbelohde) method; for mass density: Vibrating tube method

CCCC(C)O (stereo not given) [pentan-2-ol] + CC#N
refractive index, [1]
Conditions | 293.15 K | 298.15 K | 303.15 K | 308.15 K
x2 = 0 | 1.406 ± 0.0021 | 1.4045 ± 0.0039 | 1.3724 ± 0.004 | 1.3703 ± 0.0021
x2 = 0.116 | 1.4035 ± 0.0021 | 1.4012 ± 0.0038 | 1.3715 ± 0.0038 | 1.3694 ± 0.0021
x2 = 0.1727 | 1.402 ± 0.0021 | 1.3999 ± 0.0037 | 1.3707 ± 0.0037 | 1.3687 ± 0.0021
x2 = 0.2827 | 1.3981 ± 0.0021 | 1.3965 ± 0.0035 | 1.3694 ± 0.0035 | 1.3679 ± 0.0021
x2 = 0.3546 | 1.3951 ± 0.002 | 1.3941 ± 0.0034 | 1.3684 ± 0.0034 | 1.367 ± 0.0021
x2 = 0.4458 | 1.3908 ± 0.002 | 1.3901 ± 0.0032 | 1.3666 ± 0.0032 | 1.3657 ± 0.002
x2 = 0.5366 | 1.3858 ± 0.002 | 1.3848 ± 0.003 | 1.3641 ± 0.0029 | 1.3637 ± 0.002
x2 = 0.6488 | 1.3779 ± 0.002 | 1.3764 ± 0.0027 | 1.3608 ± 0.0026 | 1.3605 ± 0.002
x2 = 0.7671 | 1.3674 ± 0.002 | 1.3657 ± 0.0023 | 1.3561 ± 0.0023 | 1.3557 ± 0.002
x2 = 0.8793 | 1.3561 ± 0.002 | 1.3548 ± 0.0021 | 1.35 ± 0.0021 | 1.3491 ± 0.0021
x2 = 0.9578 | 1.3478 ± 0.0021 | 1.3461 ± 0.0021 | 1.3433 ± 0.0021 | 1.3417 ± 0.0021

[2]
Conditions | mass density [kg/m3] | viscosity [mPa·s]
x2 = 0 | 809.29 ± 0.31 | 4.298 ± 0.86
x2 = 0.116 | 806.75 ± 0.31 | 2.544 ± 0.51
x2 = 0.1727 | 805.46 ± 0.31 | 2.093 ± 0.42
x2 = 0.2827 | 802.79 ± 0.31 | 1.534 ± 0.31
x2 = 0.3546 | 801.01 ± 0.31 | 1.262 ± 0.25
x2 = 0.4458 | 798.66 ± 0.31 | 1.008 ± 0.2
x2 = 0.5366 | 796.26 ± 0.31 | 0.81 ± 0.16
x2 = 0.6488 | 793.09 ± 0.31 | 0.6391 ± 0.13
x2 = 0.7671 | 789.52 ± 0.31 | 0.5048 ± 0.1
x2 = 0.8793 | 786.03 ± 0.31 | 0.4119 ± 0.083
x2 = 0.9578 | – | 0.3705 ± 0.074

Source: the NIST ThermoML archive (doi:10.1016/j.tca.2009.06.015)
